Reference: patent US20210299079A1, “MONOMETHYL FUMARATE-CARRIER CONJUGATES AND METHODS OF THEIR USE” (Flagship Pioneering Innovations V, Inc., priority 2018, published 2021)
Where a name gives a salt, the structure may show the parent alone.

Legend:
[1] = Stability of conjugates in Simulated Gastric Fluid (SGF); assay type: in vitro ADME; conditions: SGF pH 1.6 with pepsin, 37° C., 1 μM compound
Procedure: Assay 1. Stability of conjugates in Simulated Gastric Fluid (SGF). This assay was used to assess the stability of a conjugate in a stomach.
Medium was prepared by dissolving 2 g of sodium chloride in 0.6 L in ultrapure water (MilliQ®, Millipore Sigma, Darmstadt, Germany). The pH was adjusted to 1.6 with 1N hydrochloric acid, and the volume was then adjusted to 1 L with purified water.
60 mg FaSSIF powder (Biorelevant™, London, UK) were dissolved in 500 mL buffer (above). Pepsin was added (0.1 mg/mL) (Millipore Sigma, Darmstadt, Germany), and the solution was stirred. The resulting SGF media were used fresh for each experiment.
Test compounds were dissolved in DMSO stock to 1 mM. An aliquot of the DMSO stock solution was removed and diluted in the SGF Media in 15 mL falcon tubes to generate a total compound concentration of 1 μM. A 1 mL aliquot was immediately removed and diluted once with 1 volume of acetonitrile for TO timepoint. The mixture was sealed and mixed at 37° C. in an incubator. Aliquots (1 mL) were removed at regular intervals and immediately quenched by the addition of 1 volume of acetonitrile. The resulting samples were analyzed by LC/MS to determine degradation rates in SGF.

[2] = Stability of conjugates in Simulated Intestinal Fluid (SIF); assay type: in vitro ADME; conditions: SIF pH 6.7 with pancreatin, 37° C., 1 μM compound
Procedure: Assay 2. Stability of conjugates in Simulated Intestinal Fluid (SIF). This assay was used to assess the stability of a conjugate in a small intestine.
Phosphate buffer was prepared by dissolving 0.42 g of sodium hydroxide pellets and 3.95 g of monobasic sodium phosphate monohydrate and 6.19 g of sodium chloride in ultrapure water (MilliQ®, Millipore Sigma, Darmstadt, Germany). The pH was adjusted to 6.7 using aq. HCl and aq. NaOH, as necessary, and the solution was diluted with ultrapure water to produce 1 L of the pH 6.7 buffer.
112 mg FaSSIF powder (Biorelevant™, London, UK) was dissolved in 50 mL of the pH 6.7 buffer. 2 to 3 mL of the resulting solution were then added to 500 mg pancreatin (Millipore Sigma, Darmstadt, Germany). The resulting mixture was agitated by finger tapping the vessel containing the mixture until milky suspension formed. At this time, the remainder of the 50 mL FaSSiF/pH 6.7 buffer solution was added. The resulting suspension was flipped upside down 10 times to produce SIF, which was used fresh.
Test compounds were dissolved in DMSO stock to 1 mM. An aliquot of the DMSO stock solution was removed and diluted in the SIF media in 15 mL falcon tubes to produce a mixture with a tested compound concentration of 1 μM. A 1 mL aliquot was immediately removed and diluted once with 1 volume of acetonitrile for TO timepoint. The mixture was sealed and agitated at 37° C. in an incubator. Aliquots (1 mL) were removed at regular intervals and immediately quenched by the addition of 1 volume of acetonitrile. The resulting samples were analyzed by LC/MS to determine degradation rates

naïve CD4+ T cells = assay: Human Regulatory T Cell Differentiation Assay; assay type: cell-based; conditions: 6 days; for Cell viability % DMSO: viability dye; for activity at 3000 µM: IL-2, 3 mM; for activity at 100 µM: IL-2, 100 μM
Procedure: Peripheral blood mononuclear cells (PBMCs) from whole blood donated by health volunteers were separated by Ficoll-Paque gradient centrifugation and naïve CD4^+ T cells were subsequently isolated using magnet beads (EasySep™ Human Naïve CD4^+ T Cell Isolation Kit, Cambridge, Mass.). For regulatory T cell (Treg) differentiation assay, naïve CD4^+ T cells were cultured (1-10×10^4 cells) in CTS OpTmizer medium for 6 days and stimulated with 5 ng/ml TGF-β, 100 U/ml IL-2, and ImmunoCult™ Human […] T Cell Activator; Stemcell #10990) with/without our Compounds. Cell viability was determined using a viability dye (eBioscience Fixable Viability Dye eFluor 780: ThermoFisher 65-0865-14) at 1:500 dilution. The cells were gated for Treg, defined as Live, CD11c^−, CD14^−, CD19^−, CD8^−, CD4^+, CD3^+, CD25^+, FOXP3^+. Percent (%) Tregs were calculated as percentage of CD4^+, CD25^+, FOXP3^+ cells over total CD4^+ T cells. Statistical analysis was performed with GraphPad Prism Software Using One-Way ANOVA.

[3] = Homo sapiens, 144 h, TGF-β, read-out: Treg induction % DMSO

SMILES | Assay 1 (SGF) (% Remaining @ 1 hour) [1] | Assay 2 (SIF) (% @ Remaining 4 hours) [2] | also measured
CCC(=O)O[C@H]1[C@H](OC(=O)/C=C/C(=O)OC)OC[C@@H](OC(=O)CC)[C@H]1OC(=O)CC [Compound 6, Methyl ((2S,3R,4R,5R)-3,4,5-tris(propionyloxy)tetrahydro-2H-pyran-2-yl) fumarate] | C (C: >75% of the tested compound remaining) | A (A: <25% of the tested compound remaining) | –
CCC(=O)O[C@H]1[C@H](OC(=O)CC)[C@@H](OC(=O)/C=C/C(=O)OC)O[C@@H](C)[C@H]1OC(=O)CC [Compound 21, Methyl ((2R,3S,4R,5R,6S)-6-methyl-3,4,5-tris(propionyloxy)tetrahydro-2H-pyran-2-yl) fumarate] | C (C: >75% of the tested compound remaining) | B (B: 25-75% of the tested compound remaining) | –
CCC(=O)O[C@@H]1O[C@H](COC(=O)/C=C/C(=O)OC)[C@@H](OC(=O)CC)[C@H](OC(=O)CC)[C@H]1OC(=O)CC [Compound 22, Methyl (((2R,3R,4S,5R,6S)-3,4,5,6-tetrakis(propionyloxy)tetrahydro-2H-pyran-2-yl)methyl) fumarate] | C (C: >75% of the tested compound remaining) | A (A: <25% of the tested compound remaining) | –
CCC(=O)O[C@@H]1[C@@H](OC(=O)CC)[C@@H](OC(=O)/C=C/C(=O)OC)O[C@H](C(=O)O)[C@H]1OC(=O)CC [Compound 26, (2S,3S,4S,5R,6R)-6-(((E)-4-methoxy-4-oxobut-2-enoyl)oxy)-3,4,5-tris(propionyloxy)tetrahydro-2H-pyran-2-carboxylic Acid] | C (C: >75% of the tested compound remaining) | A (A: <25% of the tested compound remaining) | –
CCCC(=O)O[C@H]1[C@@H](OC(=O)CCC)[C@@H](CO)O[C@@H](OC(=O)/C=C/C(=O)OC)[C@@H]1OC(=O)CCC [Compound 44, 1-methyl (2S,3R,4S,5S,6R)-3,4,5-tris(butanoyloxy)-6-(hydroxymethyl)oxan-2-yl (2E)-but-2-enedioate] | C (C: >75% of the tested compound remaining) | A (A: <25% of the tested compound remaining) | –
CCCC(=O)O[C@H]1[C@@H](OC(=O)CCC)[C@@H](CO)O[C@H](OC(=O)/C=C/C(=O)OC)[C@@H]1OC(=O)CCC [Compound 45, 1-methyl (2R,3R,4S,5S,6R)-3,4,5-tris(butanoyloxy)-6-(hydroxymethyl)oxan-2-yl (2E)-but-2-enedioate] | C (C: >75% of the tested compound remaining) | A (A: <25% of the tested compound remaining) | –
CCC(=O)OC[C@H]1O[C@@H](OC(=O)/C=C/C(=O)OC)[C@H](OC(=O)CC)[C@@H](OC(=O)CC)[C@H]1O [Compound 47, (2S,3R,4S,5S,6R)-5-hydroxy-3,4-bis(propanoyloxy)-6-[(propanoyloxy)methyl]oxan-2-yl 1-methyl (2E)-but-2-enedioate] | C (C: >75% of the tested compound remaining) | A (A: <25% of the tested compound remaining) | –
CCC(=O)O[C@H]1[C@@H](OC(=O)CC)[C@@H](CO)O[C@H](OC(=O)/C=C/C(=O)OC)[C@@H]1OC(=O)CC [Compound 48, (2R,3R,4S,5S,6R)-6-(hydroxymethyl)-3,4,5-tris(propanoyloxy)oxan-2-yl 1-methyl (2E)-but-2-enedioate] | C (C: >75% of the tested compound remaining) | A (A: <25% of the tested compound remaining) | –
CCC(=O)OC[C@H]1O[C@H](OC(=O)/C=C/C(=O)OC)[C@H](OC(=O)CC)[C@@H](OC(=O)CC)[C@H]1O [Compound 49, (2R,3R,4S,5S,6R)-5-hydroxy-3,4-bis(propanoyloxy)-6-[(propanoyloxy)methyl]oxan-2-yl 1-methyl (2E)-but-2-enedioate] | C (C: >75% of the tested compound remaining) | A (A: <25% of the tested compound remaining) | –
CCC(=O)O[C@H]1O[C@H](COC(=O)/C=C/C(=O)OC)[C@@H](OC(=O)CC)[C@H](OC(=O)CC)[C@H]1OC(=O)CC [Compound 50, 1-methyl 4-[(2R,3R,4S,5R,6R)-3,4,5,6-tetrakis(propanoyloxy)oxan-2-yl]methyl (2E)-but-2-enedioate] | C (C: >75% of the tested compound remaining) | A (A: <25% of the tested compound remaining) | –
CCC(=O)OC[C@H]1O[C@@H](OC(=O)CC)[C@H](OC(=O)CC)[C@@H](OC(=O)CC)[C@H]1OC(=O)/C=C/C(=O)OC [Compound 51, 1-methyl (2R,3S,4S,5R,6S)-4,5,6-tris(propanoyloxy)-2-[(propanoyloxy)methyl]oxan-3-yl (2E)-but-2-enedioate] | C (C: >75% of the tested compound remaining) | A (A: <25% of the tested compound remaining) | –
CC(=O)O [acetic acid] | – | – | Cell viability % DMSO (naïve CD4+ T cells; 1 mM): = (90% > <110%: =); Cell viability % DMSO (naïve CD4+ T cells; 3 mM): = (90% > <110%: =); activity at 1000 µM (naïve CD4+ T cells; Homo sapiens, 144 h, TGF-β, IL-2, 1 mM, read-out: Treg induction % DMSO): 110 to 130%; activity at 3000 µM (naïve CD4+ T cells; [3]): > 130%
CCCC(=O)O [butyric Acid] | – | – | Cell viability % DMSO (naïve CD4+ T cells; 3 mM): − (<90%: −); activity at 3000 µM (naïve CD4+ T cells; [3]): < 90%
CC[C@H]1[C@@H](O)[C@@H]2[C@H](CC[C@]3(C)[C@@H]([C@H](C)CCC(=O)O)CC[C@@H]23)[C@@]2(C)CC[C@@H](O)C[C@@H]12 [obeticholic acid, reference compound] | – | – | Cell viability % DMSO (naïve CD4+ T cells; 100 μM): = (90% > <110%: =); activity at 100 µM (naïve CD4+ T cells; [3]): 110 to 130%
CCC(=O)O [propionic acid] | – | – | Cell viability % DMSO (naïve CD4+ T cells; 3 mM): = (90% > <110%: =); activity at 3000 µM (naïve CD4+ T cells; [3]): > 130%
CN(CCOc1ccc(CC2SC(=O)NC2=O)cc1)c1ccccn1 (stereo not shown) [rosiglitazone, reference compound] | – | – | Cell viability % DMSO (naïve CD4+ T cells; 10 μM): = (90% > <110%: =); Cell viability % DMSO (naïve CD4+ T cells; 100 μM): − (<90%: −); activity at 10 µM (naïve CD4+ T cells; Homo sapiens, 144 h, TGF-β, IL-2, 10 μM, read-out: Treg induction % DMSO): 90 to 110%; activity at 100 µM (naïve CD4+ T cells; [3]): 90 to 110%
CC(O)CC(=O)[O-].[Na+] (stereo not drawn) [sodium β-hydroxybutyrate] | – | – | Cell viability % DMSO (naïve CD4+ T cells; 2 mM): = (90% > <110%: =); Cell viability % DMSO (naïve CD4+ T cells; 20 mM): − (<90%: −); activity at 2000 µM (naïve CD4+ T cells; Homo sapiens, 144 h, TGF-β, IL-2, 2 mM, read-out: Treg induction % DMSO): 110 to 130%; activity at 20000 µM (naïve CD4+ T cells; Homo sapiens, 144 h, TGF-β, IL-2, 20 mM, read-out: Treg induction % DMSO): 90 to 110%
